Test [1] addresses T1, Serine/threonine-protein kinase TNNI3K (Homo sapiens) (UniProt Q59H18).
T1 sequence (whole entry): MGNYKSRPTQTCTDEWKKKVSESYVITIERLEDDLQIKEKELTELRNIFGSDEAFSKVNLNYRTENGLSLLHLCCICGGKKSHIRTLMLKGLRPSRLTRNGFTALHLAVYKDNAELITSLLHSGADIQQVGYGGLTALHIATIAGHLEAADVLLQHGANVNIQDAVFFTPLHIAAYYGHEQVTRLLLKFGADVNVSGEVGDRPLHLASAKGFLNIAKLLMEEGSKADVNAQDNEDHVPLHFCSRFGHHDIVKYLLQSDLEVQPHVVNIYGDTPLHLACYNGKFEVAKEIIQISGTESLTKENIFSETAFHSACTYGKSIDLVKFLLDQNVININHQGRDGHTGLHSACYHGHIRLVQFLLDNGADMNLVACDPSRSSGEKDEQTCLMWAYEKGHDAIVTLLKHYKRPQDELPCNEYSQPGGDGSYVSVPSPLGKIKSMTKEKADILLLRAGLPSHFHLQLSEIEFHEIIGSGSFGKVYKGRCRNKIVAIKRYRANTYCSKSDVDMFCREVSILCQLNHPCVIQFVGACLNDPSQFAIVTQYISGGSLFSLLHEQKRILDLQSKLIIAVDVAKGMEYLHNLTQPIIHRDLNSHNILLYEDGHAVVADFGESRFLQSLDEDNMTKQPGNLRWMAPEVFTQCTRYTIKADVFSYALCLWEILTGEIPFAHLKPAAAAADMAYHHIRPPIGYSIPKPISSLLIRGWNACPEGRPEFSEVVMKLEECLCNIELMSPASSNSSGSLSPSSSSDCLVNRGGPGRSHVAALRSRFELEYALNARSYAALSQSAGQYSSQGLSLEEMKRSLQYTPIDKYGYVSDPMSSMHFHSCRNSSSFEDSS
To be noted: at 10 µM.

In test [2] the target is Ribosomal protein S6 kinase alpha-3 (Homo sapiens, UniProt P51812). Nature of the test: Selectivity interaction (KinomeScan (DiscoverX)) EUB0000311b RPS6KA3. As to conditions: at 1 µM.
Test [3] deals with T2, Serine/threonine-protein kinase D2 (Homo sapiens) (UniProt Q9BZL6).
T2 sequence (whole entry): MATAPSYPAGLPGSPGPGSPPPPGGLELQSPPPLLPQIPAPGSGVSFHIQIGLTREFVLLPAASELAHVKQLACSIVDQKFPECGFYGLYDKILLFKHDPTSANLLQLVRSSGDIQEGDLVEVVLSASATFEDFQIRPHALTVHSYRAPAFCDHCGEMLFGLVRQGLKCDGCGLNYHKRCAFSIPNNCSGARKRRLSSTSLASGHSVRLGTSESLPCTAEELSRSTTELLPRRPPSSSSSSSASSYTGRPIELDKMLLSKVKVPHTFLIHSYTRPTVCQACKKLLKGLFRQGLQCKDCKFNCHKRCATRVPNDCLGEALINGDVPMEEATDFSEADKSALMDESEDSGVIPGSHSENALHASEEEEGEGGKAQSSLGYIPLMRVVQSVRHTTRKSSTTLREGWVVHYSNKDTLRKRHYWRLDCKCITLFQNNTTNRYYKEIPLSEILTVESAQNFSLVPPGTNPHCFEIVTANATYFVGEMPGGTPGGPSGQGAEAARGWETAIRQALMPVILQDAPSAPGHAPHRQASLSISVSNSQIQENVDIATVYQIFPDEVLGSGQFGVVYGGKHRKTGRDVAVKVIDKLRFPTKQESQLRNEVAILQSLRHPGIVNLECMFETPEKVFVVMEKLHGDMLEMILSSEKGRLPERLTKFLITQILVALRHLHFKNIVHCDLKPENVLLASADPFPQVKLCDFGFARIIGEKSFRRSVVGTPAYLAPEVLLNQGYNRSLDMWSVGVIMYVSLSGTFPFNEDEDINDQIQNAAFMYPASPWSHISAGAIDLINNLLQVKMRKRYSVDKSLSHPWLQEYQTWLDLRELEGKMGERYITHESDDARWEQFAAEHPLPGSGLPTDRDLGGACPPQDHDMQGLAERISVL
Nature of the test: Selectivity interaction (KinomeScan (DiscoverX)) EUB0001079a PRKD2. To be noted: at 1 µM.

The test system of test [4] is eIF-2-alpha kinase GCN2 (Homo sapiens), Q9P2K8 [S808G]. As to conditions: at 10 µM.
Test [5] deals with Tyrosine-protein kinase ABL1 (Homo sapiens), P00519 [H396P]. The experiment in a line: Selectivity interaction (KinomeScan (DiscoverX)) EUB0000618a ABL1. To be noted: at 10 µM.
A further test addresses Ephrin type-A receptor 4 (Homo sapiens, UniProt P54764). Nature of the test: Selectivity interaction (KinomeScan (DiscoverX)) EUB0000618a EPHA4. To be noted: at 10 µM.
Test [6] addresses Serine/threonine-protein kinase 33 (Homo sapiens) (UniProt Q9BYT3). The experiment in a line: Selectivity interaction (KinomeScan (DiscoverX)) EUB0000618a STK33. To be noted: at 10 µM.

Ribosomal protein S6 kinase alpha-3, sequence (P51812 whole entry): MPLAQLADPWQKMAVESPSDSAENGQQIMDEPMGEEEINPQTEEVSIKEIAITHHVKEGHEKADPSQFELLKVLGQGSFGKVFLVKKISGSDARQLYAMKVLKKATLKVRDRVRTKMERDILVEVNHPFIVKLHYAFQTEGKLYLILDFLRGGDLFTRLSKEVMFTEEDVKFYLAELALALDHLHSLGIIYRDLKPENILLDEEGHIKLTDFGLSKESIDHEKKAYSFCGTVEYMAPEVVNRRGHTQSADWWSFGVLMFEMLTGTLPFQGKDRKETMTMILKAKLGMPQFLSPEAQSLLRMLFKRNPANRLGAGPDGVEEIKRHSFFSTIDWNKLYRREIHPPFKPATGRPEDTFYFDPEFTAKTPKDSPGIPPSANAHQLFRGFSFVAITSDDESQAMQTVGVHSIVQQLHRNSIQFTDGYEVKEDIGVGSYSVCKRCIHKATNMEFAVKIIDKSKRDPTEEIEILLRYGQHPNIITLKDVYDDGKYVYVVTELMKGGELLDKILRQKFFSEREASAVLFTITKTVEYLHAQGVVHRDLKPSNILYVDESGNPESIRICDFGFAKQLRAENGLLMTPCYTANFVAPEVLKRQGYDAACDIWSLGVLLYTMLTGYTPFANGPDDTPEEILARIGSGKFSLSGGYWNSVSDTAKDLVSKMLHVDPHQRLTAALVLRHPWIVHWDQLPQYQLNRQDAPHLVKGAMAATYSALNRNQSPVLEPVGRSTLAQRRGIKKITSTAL
Serine/threonine-protein kinase 33 (Homo sapiens), sequence (Q9BYT3 whole entry, looked up): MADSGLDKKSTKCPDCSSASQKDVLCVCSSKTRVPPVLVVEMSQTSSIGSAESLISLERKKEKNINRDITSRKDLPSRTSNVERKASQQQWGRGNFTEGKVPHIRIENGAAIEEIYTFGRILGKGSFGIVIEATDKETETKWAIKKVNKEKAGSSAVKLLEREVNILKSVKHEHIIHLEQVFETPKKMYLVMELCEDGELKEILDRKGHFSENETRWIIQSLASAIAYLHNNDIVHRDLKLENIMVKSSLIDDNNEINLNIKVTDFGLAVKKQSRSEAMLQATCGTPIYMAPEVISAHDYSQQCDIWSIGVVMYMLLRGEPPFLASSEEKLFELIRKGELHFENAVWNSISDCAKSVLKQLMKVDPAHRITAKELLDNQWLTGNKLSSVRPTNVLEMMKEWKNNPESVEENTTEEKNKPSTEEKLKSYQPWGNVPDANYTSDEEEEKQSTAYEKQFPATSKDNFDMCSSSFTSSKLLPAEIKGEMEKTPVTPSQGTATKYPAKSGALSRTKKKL
eIF-2-alpha kinase GCN2 (Homo sapiens), Q9P2K8 [S808G], sequence (Q9P2K8 whole entry S808G): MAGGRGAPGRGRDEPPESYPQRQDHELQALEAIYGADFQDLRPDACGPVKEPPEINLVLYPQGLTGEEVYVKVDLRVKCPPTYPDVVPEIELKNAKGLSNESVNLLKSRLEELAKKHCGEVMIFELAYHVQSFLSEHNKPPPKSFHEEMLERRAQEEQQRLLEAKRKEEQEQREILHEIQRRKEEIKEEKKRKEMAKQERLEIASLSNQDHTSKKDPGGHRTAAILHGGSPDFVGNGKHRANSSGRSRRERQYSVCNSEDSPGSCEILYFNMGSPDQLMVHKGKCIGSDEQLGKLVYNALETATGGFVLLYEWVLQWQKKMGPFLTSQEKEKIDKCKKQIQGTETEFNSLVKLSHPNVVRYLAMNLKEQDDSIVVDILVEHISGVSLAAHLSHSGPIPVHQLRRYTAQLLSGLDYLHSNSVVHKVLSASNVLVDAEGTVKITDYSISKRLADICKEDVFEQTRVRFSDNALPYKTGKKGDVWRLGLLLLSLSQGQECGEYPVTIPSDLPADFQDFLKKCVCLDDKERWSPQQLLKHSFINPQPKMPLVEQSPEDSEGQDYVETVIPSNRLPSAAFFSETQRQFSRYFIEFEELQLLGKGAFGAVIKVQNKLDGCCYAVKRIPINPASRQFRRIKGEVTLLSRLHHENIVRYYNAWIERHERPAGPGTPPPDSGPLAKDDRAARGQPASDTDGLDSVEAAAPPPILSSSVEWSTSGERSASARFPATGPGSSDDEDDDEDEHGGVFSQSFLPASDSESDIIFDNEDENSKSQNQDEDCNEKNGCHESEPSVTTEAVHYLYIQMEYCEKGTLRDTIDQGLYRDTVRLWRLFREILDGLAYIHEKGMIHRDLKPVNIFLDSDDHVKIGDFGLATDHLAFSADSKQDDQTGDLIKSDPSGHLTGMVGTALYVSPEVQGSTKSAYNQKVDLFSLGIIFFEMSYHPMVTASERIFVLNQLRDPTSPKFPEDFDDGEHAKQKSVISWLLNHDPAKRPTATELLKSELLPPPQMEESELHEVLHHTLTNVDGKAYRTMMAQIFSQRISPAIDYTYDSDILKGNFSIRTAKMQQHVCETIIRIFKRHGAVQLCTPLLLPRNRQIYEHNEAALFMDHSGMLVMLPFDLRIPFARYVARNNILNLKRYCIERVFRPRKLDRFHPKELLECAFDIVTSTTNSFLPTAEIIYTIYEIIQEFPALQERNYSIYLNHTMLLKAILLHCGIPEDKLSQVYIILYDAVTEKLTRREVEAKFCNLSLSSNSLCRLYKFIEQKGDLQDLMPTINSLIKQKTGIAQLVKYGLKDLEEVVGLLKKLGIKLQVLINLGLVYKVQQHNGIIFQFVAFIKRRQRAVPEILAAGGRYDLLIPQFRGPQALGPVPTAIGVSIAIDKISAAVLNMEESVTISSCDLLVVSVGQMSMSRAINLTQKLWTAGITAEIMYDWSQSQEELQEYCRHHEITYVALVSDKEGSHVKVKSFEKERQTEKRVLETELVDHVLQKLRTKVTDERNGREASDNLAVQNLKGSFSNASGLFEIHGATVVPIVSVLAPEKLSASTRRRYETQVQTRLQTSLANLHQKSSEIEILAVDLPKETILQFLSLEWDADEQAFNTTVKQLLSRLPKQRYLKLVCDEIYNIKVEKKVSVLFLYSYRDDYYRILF
Ephrin type-A receptor 4, sequence (P54764 whole entry): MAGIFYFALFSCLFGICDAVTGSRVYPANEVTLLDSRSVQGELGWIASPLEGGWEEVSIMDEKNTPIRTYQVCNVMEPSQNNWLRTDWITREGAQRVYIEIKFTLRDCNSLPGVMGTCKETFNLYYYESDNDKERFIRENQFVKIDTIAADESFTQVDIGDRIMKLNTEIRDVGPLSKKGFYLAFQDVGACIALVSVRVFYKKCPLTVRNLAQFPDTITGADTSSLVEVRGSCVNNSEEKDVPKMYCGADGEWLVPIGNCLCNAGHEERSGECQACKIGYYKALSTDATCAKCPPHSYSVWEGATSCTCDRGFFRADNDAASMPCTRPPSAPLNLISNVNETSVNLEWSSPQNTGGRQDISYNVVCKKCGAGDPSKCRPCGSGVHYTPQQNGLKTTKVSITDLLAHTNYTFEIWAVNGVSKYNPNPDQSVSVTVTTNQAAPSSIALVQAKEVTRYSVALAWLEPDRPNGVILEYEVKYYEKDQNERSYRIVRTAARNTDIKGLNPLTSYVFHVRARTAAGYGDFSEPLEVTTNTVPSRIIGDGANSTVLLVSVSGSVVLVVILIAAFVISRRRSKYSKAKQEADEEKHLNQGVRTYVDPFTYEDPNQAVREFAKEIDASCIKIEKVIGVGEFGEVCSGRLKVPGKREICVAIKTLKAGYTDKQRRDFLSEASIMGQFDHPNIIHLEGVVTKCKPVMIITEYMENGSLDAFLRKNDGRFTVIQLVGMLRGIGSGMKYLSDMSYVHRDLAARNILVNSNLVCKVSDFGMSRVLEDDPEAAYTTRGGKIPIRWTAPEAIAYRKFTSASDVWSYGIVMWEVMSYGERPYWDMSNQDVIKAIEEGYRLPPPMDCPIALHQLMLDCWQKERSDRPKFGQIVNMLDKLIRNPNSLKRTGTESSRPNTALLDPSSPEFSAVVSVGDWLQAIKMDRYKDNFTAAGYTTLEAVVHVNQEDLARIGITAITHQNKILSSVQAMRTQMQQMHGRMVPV

Compound `Cc1cc([C@@H](C)Nc2ccccc2C(=O)O)c2nc(N3CCOCC3)cc(=O)n2c1` [AZD-6482] came in with a % of control in test [1] of 88%.

Compound `CCc1ccccc1C(=O)Nc1n[nH]c2c(C)c(F)c(C3C(C#N)=C(C)N(C)C(C)=C3C#N)cc12` [BAY-3827] returned a % of control in test [2] of 0.3%.

Take `Nc1cnc(N2CCc3cc(S(=O)(=O)Nc4c(F)cc(Cl)cc4F)cc(N4CCCC4=O)c32)nc1` [TP-020n]: the % of control in test [3] was 100%.

As for `CCN(CC)CCCCNc1ncc2cc(-c3cc(OC)cc(OC)c3)c(NC(=O)NC(C)(C)C)nc2n1`, the % of control in test [4] worked out at 100%.

On to `O[C@H]1CC[C@H](Nc2ncc3nc(Nc4c(F)cc(F)cc4F)n([C@H]4CCOC4)c3n2)CC1`, for which the % of control turned out to be 31% in test [5], 93% on Ephrin type-A receptor 4 and 100% in test [6].

Source of the values: ChEMBL document CHEMBL5465560, “Selectivity Literature for EUbOPEN Chemogenomic Library” (2024).
